The results in this text go back to PubChem BioAssay (NCI).

Several values for one entry are separate records, joined by “and”; a condition that tells them apart may be missing. Equal values may be shown once.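 Protocol summary: plate cells (96-well), add compound at 5 concentrations, incubate 48 h, interpolate endpoints linearly. Here, GI50 denotes the concentration required for 50% inhibition of growth. TGI: total growth inhibition.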

Among the test systems are T-47D breast; OVCAR-5 ovarian; HOP-92 NSCLC; HL-60(TB) leukemia; NCI/ADR-RES ovarian; SW-620 colon; IGROV1 ovarian; KM12 colon; HCT-15 colon; UO-31 renal.
Common to all, as to test: DTP human tumour cell line panel, 48 h

With `Cc1c(O)c2c(c(O)c1Br)C(=O)C=CC2=O`, the TGI is 2.01 µM in the assay with T-47D breast; 3.19 µM and 3.92 µM with OVCAR-5 ovarian; 1.48 µM and 0.887 µM with HOP-92 NSCLC; 0.113 µM and 0.016 µM with HL-60(TB) leukemia; 1.66 µM and 7.1 µM in the assay on NCI/ADR-RES ovarian; 0.364 µM and 2.27 µM in the assay on SW-620 colon. Moreover, the TGI with IGROV1 ovarian was 3.05 µM and 3.56 µM; in the assay with KM12 colon, 3.14 µM and 13.3 µM; in the assay on HCT-15 colon it was 1.14 µM and 1.94 µM; with UO-31 renal, 1.23 µM and 2.95 µM. Further, the GI50 in the assay with OVCAR-5 ovarian was 1.95 µM; in the assay on HOP-92 NSCLC, 0.27 µM; in the assay on NCI/ADR-RES ovarian, 2.4 µM; in the assay with SW-620 colon it was 0.449 µM; with KM12 colon it was 3.55 µM; with HCT-15 colon, 0.451 µM. Further, the GI50 in the assay on UO-31 renal was 1.38 µM.

With `COc1ccc(C2=NN(C(=O)c3cc(OC)c(OC)c(OC)c3)C(c3ccc(N(C)C)cc3)C2)cc1` (stereo unspecified), the GI50 in the assay on T-47D breast is 0.535 µM; in the assay with OVCAR-5 ovarian, 0.732 µM; in the assay with HOP-92 NSCLC it was 0.886 µM; in the assay with HL-60(TB) leukemia it was 0.499 µM; in the assay on NCI/ADR-RES ovarian it was 0.379 µM; in the assay with SW-620 colon it was 0.427 µM. Further, the GI50 in the assay on IGROV1 ovarian is 0.739 µM; with KM12 colon, 0.46 µM; in the assay with HCT-15 colon, 0.426 µM; in the assay with UO-31 renal it was 0.558 µM. The TGI in the assay on T-47D breast was above 100 µM; in the assay with OVCAR-5 ovarian, above 100 µM; in the assay on HOP-92 NSCLC, above 100 µM; in the assay with HL-60(TB) leukemia it was 2.87 µM; in the assay on SW-620 colon it was above 100 µM; in the assay on IGROV1 ovarian, above 100 µM. Moreover, the TGI in the assay on KM12 colon, in the assay with HCT-15 colon and with UO-31 renal was above 100 µM each time.

As to `CCOc1cccc(-c2nc(N)nc(Nc3ccccc3SSc3ccccc3Nc3nc(N)nc(-c4cccc(OCC)c4)n3)n2)c1`, the GI50 with T-47D breast is 2.42 µM; in the assay with OVCAR-5 ovarian, 3.42 µM; with HOP-92 NSCLC it was 2.77 µM; in the assay on HL-60(TB) leukemia, 2.14 µM; in the assay with NCI/ADR-RES ovarian, 3.32 µM; in the assay on SW-620 colon, 4.56 µM. For the same compound, the GI50 in the assay with IGROV1 ovarian is 3.65 µM; with KM12 colon, 3.53 µM; in the assay with HCT-15 colon, 2.18 µM; with UO-31 renal it was 1.68 µM. Also, the TGI with T-47D breast is above 100 µM; in the assay with OVCAR-5 ovarian it was 44.1 µM; in the assay on HOP-92 NSCLC it was 9.86 µM; in the assay on HL-60(TB) leukemia it was 6.09 µM; with NCI/ADR-RES ovarian, above 100 µM; in the assay on SW-620 colon, above 100 µM. In addition, the TGI in the assay on IGROV1 ovarian is 97 µM; with KM12 colon, above 100 µM; with HCT-15 colon, above 100 µM; in the assay with UO-31 renal it was 3.16 µM.

`COc1cc2c(cc1Nc1nc(Nc3cccc(F)c3C(N)=O)c3cc[nH]c3n1)N(C(=O)CN1CCN(C(C)C)CC1)CC2`: the GI50 in the assay with T-47D breast is 3.23 µM; with OVCAR-5 ovarian, 2.82 µM; with HOP-92 NSCLC it was 0.374 µM; with HL-60(TB) leukemia it was 1.42 µM; in the assay on NCI/ADR-RES ovarian, 5.42 µM; in the assay on SW-620 colon it was 2.81 µM. Besides, the GI50 in the assay on IGROV1 ovarian is 4.5 µM; in the assay on KM12 colon it was 3.82 µM; with HCT-15 colon it was 4.36 µM; in the assay with UO-31 renal it was 3.92 µM. The concentration for total growth inhibition (TGI) in the assay on T-47D breast was 6.54 µM; in the assay on OVCAR-5 ovarian, 7.35 µM; with HOP-92 NSCLC it was 3.13 µM; in the assay on HL-60(TB) leukemia, 5.6 µM; with NCI/ADR-RES ovarian it was 13.5 µM; with SW-620 colon, 5.96 µM. Also, the TGI was 10.2 µM in the assay with IGROV1 ovarian, 7.31 µM with KM12 colon, 9.33 µM in the assay with HCT-15 colon and 9.74 µM in the assay on UO-31 renal.

As for `CCCCCCCCC(=O)OCC(CS[As](C)C)OC(=O)CCCCCCCC` (stereo unspecified), the GI50 in the assay on T-47D breast was 0.267 µM; in the assay on OVCAR-5 ovarian it was 3.22 µM; in the assay on HOP-92 NSCLC it was 1.93 µM; in the assay with HL-60(TB) leukemia, 0.285 µM; with NCI/ADR-RES ovarian it was 0.89 µM; in the assay with SW-620 colon, 0.349 µM. The GI50 in the assay on IGROV1 ovarian is 5.1 µM; in the assay on KM12 colon, 2.77 µM; in the assay with HCT-15 colon, 0.629 µM; in the assay on UO-31 renal, 3.46 µM. Also, the TGI came out at 20.1 µM in the assay with T-47D breast; 10 µM in the assay on OVCAR-5 ovarian; 18.3 µM in the assay on HOP-92 NSCLC; 1.78 µM with HL-60(TB) leukemia; 3.07 µM in the assay with NCI/ADR-RES ovarian; 14.9 µM in the assay on SW-620 colon. For the same compound, the TGI in the assay on IGROV1 ovarian was above 48.4 µM; in the assay on KM12 colon, 13.8 µM; in the assay with HCT-15 colon it was 10.4 µM; in the assay on UO-31 renal, above 39.9 µM.

With `Cc1ccc2c(c1)S(=O)(=O)c1ccc3ccccc3c1N2`, the TGI in the assay on T-47D breast, in the assay with OVCAR-5 ovarian, in the assay with HOP-92 NSCLC, in the assay on HL-60(TB) leukemia, with NCI/ADR-RES ovarian and in the assay on SW-620 colon was above 100 µM throughout. In addition, the TGI with IGROV1 ovarian, in the assay with KM12 colon, in the assay on HCT-15 colon and in the assay with UO-31 renal was above 100 µM in each case.

For `COC1=CC(c2ccc[nH]2)=N/C1=C\c1[nH]c(C)c(C(=O)CCCCC(=O)Oc2ccc3c(c2)CCC2C3CC[C@]3(C)[C@@H](O)CC[C@@H]23)c1C` (stereo partly specified), the GI50 was 1.39 µM in the assay with T-47D breast; above 100 µM in the assay with OVCAR-5 ovarian; 3.3 µM in the assay on HOP-92 NSCLC; above 100 µM with HL-60(TB) leukemia; above 100 µM with NCI/ADR-RES ovarian; 4.33 µM with SW-620 colon. The GI50 in the assay with IGROV1 ovarian was 31.1 µM; in the assay with KM12 colon it was 6.66 µM; with HCT-15 colon, 3.56 µM; in the assay with UO-31 renal, 5.08 µM. In addition, the TGI in the assay with T-47D breast was 4.25 µM; with OVCAR-5 ovarian it was above 100 µM; with HOP-92 NSCLC, 29.2 µM; with HL-60(TB) leukemia, above 100 µM; with NCI/ADR-RES ovarian it was above 100 µM; in the assay with SW-620 colon, above 100 µM. Further, the TGI in the assay on IGROV1 ovarian, with KM12 colon, in the assay with HCT-15 colon and in the assay on UO-31 renal was above 100 µM in each case.

On to `Cn1c(=O)c(Oc2ccc(F)cc2F)cc2cnc(NC3CCS(=O)(=O)CC3)nc21`, for which the GI50 in the assay on T-47D breast is above 19.8 µM; with OVCAR-5 ovarian, above 25 µM; in the assay on HOP-92 NSCLC, 5.23 µM; in the assay with HL-60(TB) leukemia it was above 25 µM; in the assay with NCI/ADR-RES ovarian, above 25 µM; with SW-620 colon, above 25 µM. The GI50 in the assay on IGROV1 ovarian is above 21.2 µM; with KM12 colon it was above 25 µM; in the assay on HCT-15 colon, above 25 µM; in the assay with UO-31 renal, above 25 µM. In addition, the TGI with T-47D breast, in the assay on OVCAR-5 ovarian, in the assay on HOP-92 NSCLC, in the assay on HL-60(TB) leukemia, in the assay with NCI/ADR-RES ovarian and in the assay with SW-620 colon was above 25 µM throughout. In addition, the TGI in the assay with IGROV1 ovarian, with KM12 colon, in the assay on HCT-15 colon and in the assay on UO-31 renal was above 25 µM each time.

On to `CCN(CC)C1CCC(Nc2c(C(C)=O)cnc3ccc(-c4ccc(O)c(Cl)c4)cc23)CC1` (stereo unspecified), for which the GI50 in the assay with T-47D breast was 1.94 µM; with OVCAR-5 ovarian, 2.4 µM; with HOP-92 NSCLC, 0.227 µM; in the assay with HL-60(TB) leukemia, 0.15 µM; in the assay with NCI/ADR-RES ovarian it was 0.821 µM; in the assay on SW-620 colon, 0.933 µM. The GI50 in the assay with IGROV1 ovarian was 0.253 µM; in the assay with KM12 colon, 0.432 µM; with HCT-15 colon, 0.301 µM; in the assay on UO-31 renal it was 0.425 µM. The TGI in the assay on T-47D breast is above 100 µM; in the assay on OVCAR-5 ovarian, above 96.3 µM; in the assay on HOP-92 NSCLC, 4.27 µM; in the assay on HL-60(TB) leukemia, 1.51 µM; in the assay with NCI/ADR-RES ovarian, 5.55 µM; with SW-620 colon it was 4.38 µM. Further, the TGI with IGROV1 ovarian is 5.47 µM; in the assay with KM12 colon, 4.28 µM; in the assay on HCT-15 colon it was 9.62 µM; in the assay on UO-31 renal, above 36.8 µM.

Take `O=C(Nc1n[nH]c2nnc(-c3cccnc3)cc12)C1CC1`: the GI50 was above 12.9 µM in the assay on T-47D breast; above 17.8 µM in the assay on OVCAR-5 ovarian; above 25 µM in the assay on HOP-92 NSCLC; above 13.6 µM with HL-60(TB) leukemia; above 25 µM with NCI/ADR-RES ovarian; 8.97 µM in the assay on SW-620 colon. Also, the GI50 in the assay on IGROV1 ovarian was above 11.7 µM; in the assay with KM12 colon, 5.22 µM; in the assay on HCT-15 colon, above 20.3 µM; with UO-31 renal, 1.65 µM. In addition, the TGI in the assay on T-47D breast was above 25 µM; with OVCAR-5 ovarian, above 25 µM; in the assay with HOP-92 NSCLC it was above 25 µM; with HL-60(TB) leukemia it was above 22.6 µM; in the assay with NCI/ADR-RES ovarian it was above 25 µM; in the assay on SW-620 colon, above 25 µM. For the same compound, the TGI with IGROV1 ovarian is above 25 µM; in the assay with KM12 colon it was above 20.1 µM; with HCT-15 colon, above 25 µM; with UO-31 renal it was above 20.3 µM.

For the compound `CCCCCCCCCCCCCCCCC(=O)O.CCCCCCCCCCCCCCCCCC(=O)O.CCCCCCCCCCCCCCCCCC(=O)O.CCCCCCCCCCCCCCCCCC(=O)O.CCCCCCCCCCCCCCCCCC(=O)O.CO[CH-]OC12COC1CC(O)C1(C)C(O)C(OC(C)O)C3=C(C)C(OC(=O)C(O)C([NH-])c4ccccc4)CC(O)(C(OC(=O)c4ccccc4)C21)C3(C)C.[Cu+].[Zn].[Zn].[Zn].[Zn].[Zn]` (stereo unspecified), the GI50 with T-47D breast is 0.00863 µM; with OVCAR-5 ovarian, 0.0113 µM; with HOP-92 NSCLC, 0.858 µM; in the assay with HL-60(TB) leukemia, 0.00466 µM; with NCI/ADR-RES ovarian, 2.31 µM; with SW-620 colon, 0.00662 µM. Besides, the GI50 was 0.00711 µM in the assay with IGROV1 ovarian, 0.00656 µM with KM12 colon, 0.222 µM with HCT-15 colon and 0.487 µM in the assay with UO-31 renal. Besides, the TGI with T-47D breast is above 25 µM; with OVCAR-5 ovarian, 4.22 µM; in the assay with HOP-92 NSCLC, 12.8 µM; in the assay on HL-60(TB) leukemia it was above 25 µM; in the assay with NCI/ADR-RES ovarian it was 24.6 µM; in the assay on SW-620 colon, above 16.2 µM. In addition, the TGI in the assay on IGROV1 ovarian is 4.39 µM; in the assay with KM12 colon, above 25 µM; in the assay on HCT-15 colon it was above 25 µM; in the assay on UO-31 renal it was above 14.5 µM.

One may read the TGI as the concentration at which net growth stops. Broadly, the GI50 is the concentration at which growth is held to half of that of the control.
